{"source": "patent US8987195B2", "about": "(priority 2012, dated 2015)", "key": {"HCV genotype 1b replicon": {"system": "HCV genotype 1b replicon", "experiment": "HCV replicon assay, genotype 1b replicon EC50", "format": "cell-based, Hepatitis C virus", "conditions": "Hepatitis C virus, genotype 1b replicon, read-out: EC50 [gt-1b]", "summary_of_the_method": "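Replicon cells (Neo^r, some luciferase:Neo^r fusion); G418 removed at plating; compound dilution series, 24-48 h. Readout: RNA by 32P-probe hybridization/protection or TaqMan, normalized to cyclophilin A RNA, or luciferase. EC50 vs DMSO control, 4-parameter fit.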"}, "[1]": {"target": "HCV NS3/4A protease genotype 1b (Hepatitis C virus genotype 1b, UniProt P26663)", "experiment": "HCV NS3/4A protease time-resolved fluorescence (TRF) assay, Ki against genotype 1b", "format": "biochemical", "conditions": "IC50 [gt-1b] (nM), NS3/4A genotype 1b, enzyme 0.2 nM", "summary_of_the_method": "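NS3/4A enzyme was preincubated 30 min with inhibitor in 50 mM HEPES pH 7.5, 150 mM NaCl, 15% glycerol, 0.15% Triton X-100, 10 mM DTT, 0.1% PEG 8000; 25 nM europium TRF peptide substrate added, 2.5 h at room temperature. Enzyme: 0.2 nM (1b), 0.4 nM (A156T), 0.025 nM (3a). Ki from IC50 via Cheng-Prusoff.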"}}, "note": "Read-outs that look alike come from different tables or passages of the source.", "data": [{"smiles": "CC1(OC(=O)N[C@H]2CCCCC/C=C\\[C@@H]3C[C@@]3(C(=O)NS(=O)(=O)C3(C)CC3)NC(=O)[C@@H]3C[C@]4(CCc5c(c(C6CC6)nc6c(F)cccc56)O4)CN3C2=O)CCCCC1", "note": "[Example 176, 1-methylcyclohexyl [(2R,6S,12Z,13aS,14aR,16aS)-5′-cyclopropyl-7′-fluoro-14a-{[(1-methylcyclopropyl)sulfonyl]carbamoyl}-5,16-dioxo-1,1′,2′,5,6,7,8,9,10,11,13a,14,14a,15,16,16a-hexadecahydrospiro[cyclopropa[e]pyrrolo[1,2-a][1,4]diazacyclopentadecine-2,3′-pyrano[2,3-c]quinolin]-6-yl]carbamate]", "values": [{"measurement": "EC50", "setting": "HCV genotype 1b replicon", "result": 2.26, "unit": "nM"}, {"measurement": "IC50", "setting": "[1]", "result": 0.026, "unit": "nM"}]}, {"smiles": "Cc1nc2ccc(OC(F)(F)F)cc2c2c1O[C@]1(CC2)C[C@H]2C(=O)N[C@]3(C(=O)NS(=O)(=O)C4(C)CC4)C[C@H]3/C=C\\CCCCC[C@H](NC(=O)OCC3COC3)C(=O)N2C1", "note": "[Example 177, oxetan-3-ylmethyl [(2R,6S,12Z,13aS,14aR,16aS)-5′-methyl-14a-{[(1-methylcyclopropyl)sulfonyl]carbamoyl}-5,16-dioxo-9′-(trifluoromethoxy)-1,1′,2′,5,6,7,8,9,10,11,13a,14,14a,15,16,16a-hexadecahydrospiro[cyclopropa[e]pyrrolo[1,2-a][1,4]diazacyclopentadecine-2,3′-pyrano[2,3-c]quinolin]-6-yl]carbamate]", "values": [{"measurement": "EC50", "setting": "HCV genotype 1b replicon", "result": 21.9, "unit": "nM"}, {"measurement": "IC50", "setting": "[1]", "result": 0.011, "unit": "nM"}]}, {"smiles": "COc1ccc2nc(C(C)C)c3c(c2c1)CC[C@]1(C[C@H]2C(=O)N[C@]4(C(=O)NS(=O)(=O)C5(C)CC5)C[C@H]4/C=C\\CCCCC[C@H](NC(=O)OCC4COC4)C(=O)N2C1)O3", "note": "[Example 178, oxetan-3-ylmethyl [(2R,6S,12Z,13aS,14aR,16aS)-9′-methoxy-14a-{[(1-methylcyclopropyl)sulfonyl]carbamoyl}-5,16-dioxo-5′-(propan-2-yl)-1,1′,2′,5,6,7,8,9,10,11,13a,14,14a,15,16,16a-hexadecahydrospiro[cyclopropa[e]pyrrolo[1,2-a][1,4]diazacyclopentadecine-2,3′-pyrano[2,3-c]quinolin]-6-yl]carbamate]", "values": [{"measurement": "EC50", "setting": "HCV genotype 1b replicon", "result": 11.1, "unit": "nM"}, {"measurement": "IC50", "setting": "[1]", "result": 0.007, "unit": "nM"}]}, {"smiles": "Cc1nc2ccccc2c2c1O[C@]1(CC2)C[C@H]2C(=O)N[C@]3(C(=O)NS(=O)(=O)C4(C)CC4)C[C@H]3/C=C\\CCCCC[C@H](NC(=O)O[C@@H]3C[C@H]4CC[C@@H]3C4)C(=O)N2C1", "note": "[Example 179, (1R,2R,4S)-bicyclo[2.2.1]hept-2-yl [(2R,6S,12Z,13aS,14aR,16aS)-5′-methyl-14a-{[(1-methylcyclopropyl)sulfonyl]carbamoyl}-5,16-dioxo-1,1′,2′,5,6,7,8,9,10,11,13a,14,14a,15,16,16a-hexadecahydrospiro[cyclopropa[e]pyrrolo[1,2-a][1,4]diazacyclopentadecine-2,3′-pyrano[2,3-c]quinolin]-6-yl]carbamate]", "values": [{"measurement": "EC50", "setting": "HCV genotype 1b replicon", "result": 0.2, "unit": "nM"}, {"measurement": "IC50", "setting": "[1]", "result": 0.012, "unit": "nM"}]}, {"smiles": "Cc1nc2ccc(OC(F)(F)F)cc2c2c1O[C@]1(CC2)C[C@H]2C(=O)N[C@]3(C(=O)NS(=O)(=O)C4(C)CC4)C[C@H]3/C=C\\CCCCC[C@H](NC(=O)OC3CCC3)C(=O)N2C1", "note": "[Example 180, cyclobutyl [(2R,6S,12Z,13aS,14aR,16aS)-5′-methyl-14a-{[(1-methylcyclopropyl)sulfonyl]carbamoyl}-5,16-dioxo-9′-(trifluoromethoxy)-1,1′,2′,5,6,7,8,9,10,11,13a,14,14a,15,16,16a-hexadecahydrospiro[cyclopropa[e]pyrrolo[1,2-a][1,4]diazacyclopentadecine-2,3′-pyrano[2,3-c]quinolin]-6-yl]carbamate]", "values": [{"measurement": "EC50", "setting": "HCV genotype 1b replicon", "result": 1.72, "unit": "nM"}, {"measurement": "IC50", "setting": "[1]", "result": 0.012, "unit": "nM"}]}, {"smiles": "Cc1nc2ccccc2c2c1O[C@]1(CC2)C[C@H]2C(=O)N[C@]3(C(=O)NS(=O)(=O)C4(C)CC4)C[C@H]3/C=C\\CCCCC[C@H](NC(=O)O[C@H]3C[C@H]4CC[C@@H]3C4)C(=O)N2C1", "note": "[Example 181, (1R,2S,4S)-bicyclo[2.2.1]hept-2-yl [(2R,6S,12Z,13aS,14aR,16aS)-5′-methyl-14a-{[(1-methylcyclopropyl)sulfonyl]carbamoyl}-5,16-dioxo-1,1′,2′,5,6,7,8,9,10,11,13a,14,14a,15,16,16a-hexadecahydrospiro[cyclopropa[e]pyrrolo[1,2-a][1,4]diazacyclopentadecine-2,3′-pyrano[2,3-c]quinolin]-6-yl]carbamate]", "values": [{"measurement": "EC50", "setting": "HCV genotype 1b replicon", "result": 0.39, "unit": "nM"}, {"measurement": "IC50", "setting": "[1]", "result": 0.017, "unit": "nM"}]}, {"smiles": "Cc1nc2ccc(Cl)cc2c2c1O[C@]1(CC2)C[C@H]2C(=O)N[C@]3(C(=O)NS(=O)(=O)C4(C)CC4)C[C@H]3/C=C\\CCCCC[C@H](NC(=O)OC3CCCC3)C(=O)N2C1", "note": "[Example 182, cyclopentyl [(2R,6S,12Z,13aS,14aR,16aS)-9′-chloro-5′-methyl-14a-{[(1-methylcyclopropyl)sulfonyl]carbamoyl}-5,16-dioxo-1,1′,2′,5,6,7,8,9,10,11,13a,14,14a,15,16,16a-hexadecahydrospiro[cyclopropa[e]pyrrolo[1,2-a][1,4]diazacyclopentadecine-2,3′-pyrano[2,3-c]quinolin]-6-yl]carbamate]", "values": [{"measurement": "EC50", "setting": "HCV genotype 1b replicon; K+ salt", "result": 1.7, "unit": "nM"}, {"measurement": "IC50", "setting": "[1]; K+ salt", "result": 0.009, "unit": "nM"}]}, {"smiles": "Cc1nc2ccc(Cl)cc2c2c1O[C@]1(CC2)C[C@H]2C(=O)N[C@]3(C(=O)NS(=O)(=O)C4(C)CC4)C[C@H]3/C=C\\CCCCC[C@H](NC(=O)OC(C)C)C(=O)N2C1", "note": "[Example 183, propan-2-yl [(2R,6S,12Z,13aS,14aR,16aS)-9′-chloro-5′-methyl-14a-{[(1-methylcyclopropyl)sulfonyl]carbamoyl}-5,16-dioxo-1,1′,2′,5,6,7,8,9,10,11,13a,14,14a,15,16,16a-hexadecahydrospiro[cyclopropa[e]pyrrolo[1,2-a][1,4]diazacyclopentadecine-2,3′-pyrano[2,3-c]quinolin]-6-yl]carbamate]", "values": [{"measurement": "EC50", "setting": "HCV genotype 1b replicon; K+ salt", "result": 1.63, "unit": "nM"}, {"measurement": "IC50", "setting": "[1]; K+ salt", "result": 0.008, "unit": "nM"}]}, {"smiles": "Cc1nc2ccc(Cl)cc2c2c1O[C@]1(CC2)C[C@H]2C(=O)N[C@]3(C(=O)NS(=O)(=O)C4(C)CC4)C[C@H]3/C=C\\CCCCC[C@H](NC(=O)OC3(C)CC3)C(=O)N2C1", "note": "[Example 184, 1-methylcyclopropyl [(2R,6S,12Z,13aS,14aR,16aS)-9′-chloro-5′-methyl-14a-{[(1-methylcyclopropyl)sulfonyl]carbamoyl}-5,16-dioxo-1,1′,2′,5,6,7,8,9,10,11,13a,14,14a,15,16,16a-hexadecahydrospiro[cyclopropa[e]pyrrolo[1,2-a][1,4]diazacyclopentadecine-2,3′-pyrano[2,3-c]quinolin]-6-yl]carbamate]", "values": [{"measurement": "EC50", "setting": "HCV genotype 1b replicon; K+ salt", "result": 4.22, "unit": "nM"}, {"measurement": "IC50", "setting": "[1]; K+ salt", "result": 0.004, "unit": "nM"}]}, {"smiles": "Cc1nc2ccc(Cl)cc2c2c1O[C@]1(CC2)C[C@H]2C(=O)N[C@]3(C(=O)NS(=O)(=O)C4(C)CC4)C[C@H]3/C=C\\CCCCC[C@H](NC(=O)OC3CCC3)C(=O)N2C1", "note": "[Example 185, cyclobutyl [(2R,6S,12Z,13aS,14aR,16aS)-9′-chloro-5′-methyl-14a-{[(1-methylcyclopropyl)sulfonyl]carbamoyl}-5,16-dioxo-1,1′,2′,5,6,7,8,9,10,11,13a,14,14a,15,16,16a-hexadecahydrospiro[cyclopropa[e]pyrrolo[1,2-a][1,4]diazacyclopentadecine-2,3′-pyrano[2,3-c]quinolin]-6-yl]carbamate]", "values": [{"measurement": "EC50", "setting": "HCV genotype 1b replicon; K+ salt", "result": 4.14, "unit": "nM"}, {"measurement": "IC50", "setting": "[1]; K+ salt", "result": 0.005, "unit": "nM"}]}]}
